Reference: patent publication US20110053934A1, “COMPOUNDS AND METHODS OF TREATMENT” (GLAXOSMITHKLINE LLC, priority 2007, published 2011)
Read-outs that look alike come from different tables or passages of the source.

How the values were obtained:
[1] = biological target: T1, ret kinase (intracellular portion of ret, amino acids 713-1072 of the short isoform) (Homo sapiens, UniProt P07949); test: Ret kinase enzyme assay; assay type: biochemical
T1 sequence (P07949 713-1072 isoform P07949-2): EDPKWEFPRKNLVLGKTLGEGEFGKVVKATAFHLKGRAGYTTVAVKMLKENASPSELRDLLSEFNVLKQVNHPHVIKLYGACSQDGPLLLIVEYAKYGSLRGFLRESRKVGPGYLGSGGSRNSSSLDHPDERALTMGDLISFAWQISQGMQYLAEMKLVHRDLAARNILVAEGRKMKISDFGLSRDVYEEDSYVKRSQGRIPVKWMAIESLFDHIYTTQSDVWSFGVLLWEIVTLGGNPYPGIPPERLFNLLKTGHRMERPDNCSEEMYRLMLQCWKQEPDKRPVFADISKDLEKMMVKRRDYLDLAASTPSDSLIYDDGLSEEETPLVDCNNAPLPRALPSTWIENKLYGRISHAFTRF
Experimental: The ret kinase assay used the intracellular portion of ret (amino acids 713-1072 of the short isoform) produced in SF9 insect cells and purified on a nickel column. The assay was performed in a 45 μL volume with increasing concentrations of tyrosine kinase inhibitor (TKI) in triplicate in a 96-well plate format as follows: • 4.5 μL 500 mM Morpholinopropanesulfonic acid, pH 7.4 • 4.5 μL 100 μM adenosine triphosphate • 4.5 μL 250 mM MgCl2 • 1.0 μL γ-ATP^33 (1 microCi)(3000 Ci/mMol) • 2.04 (5 mg/ml) poly Glutamic acid-Tyrosine (Sigma (P-0275)) • 234H20 • 1.04 recombinant ret (100 ng) • 4.5 μL 10× Tyrosine kinase inhibitor
The components were incubated in triplicate for 30 minutes at room temperature within a 96-well plate in triplicate. The reaction was stopped by adding 45 μL 0.5% H3PO4 to each well. 75 μL of the reaction mixture was spotted onto phosphocellulose paper (Millipore, cat #MAPHN0B50) and was washed 3 times with 2004 0.5% H3PO4. Each phosphocellulase filter was transferred into a separate scintillation vial, 1 ml cytoscint fluid was added, and the sample counted on a Packard 1900TR liquid scintillation analyzer for 1 minute.
Concentrations of Example 1 tested in the ret enzyme kinase assay to determine the IC50 were 0, 0.5, 1, 5, 10, 50, 100, and 250 nM.

[2] = system: TT cells, a medullary thyroid cancer cell line with constitutively activated ret; test: MTT assay, TT cell proliferation; assay type: cell-based; details: Homo sapiens, 168 hours with compound
Experimental: The potency of the compound of the invention was tested for its ability to inhibit cell proliferation and cell viability.

c-src = c-src (Homo sapiens, UniProt P12931); test: c-src kinase inhibition; assay type: biochemical; details: read-out: c-src, range of activity, pIC50 values (converted)
Sequence of c-src (P12931 whole entry, species assumed): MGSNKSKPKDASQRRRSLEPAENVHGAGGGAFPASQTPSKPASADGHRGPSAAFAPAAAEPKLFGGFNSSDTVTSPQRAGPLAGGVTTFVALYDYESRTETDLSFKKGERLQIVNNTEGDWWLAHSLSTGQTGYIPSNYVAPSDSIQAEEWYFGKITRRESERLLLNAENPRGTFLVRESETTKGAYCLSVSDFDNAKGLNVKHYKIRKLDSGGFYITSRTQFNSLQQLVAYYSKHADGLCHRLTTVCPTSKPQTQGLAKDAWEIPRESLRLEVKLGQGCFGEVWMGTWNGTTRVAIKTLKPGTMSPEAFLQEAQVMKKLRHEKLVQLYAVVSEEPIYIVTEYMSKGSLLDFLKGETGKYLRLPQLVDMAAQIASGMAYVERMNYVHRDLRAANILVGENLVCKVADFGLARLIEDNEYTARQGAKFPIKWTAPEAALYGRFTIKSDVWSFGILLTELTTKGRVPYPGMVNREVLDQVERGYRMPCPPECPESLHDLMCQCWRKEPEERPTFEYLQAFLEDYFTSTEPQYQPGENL

VEFGR2 = VEFGR2 (Homo sapiens, UniProt P35968); test: VEFGR2 kinase inhibition; assay type: biochemical; details: read-out: VEFGR2, range of activity, pIC50 values (converted)
Sequence of VEFGR2 (P35968 20-1356): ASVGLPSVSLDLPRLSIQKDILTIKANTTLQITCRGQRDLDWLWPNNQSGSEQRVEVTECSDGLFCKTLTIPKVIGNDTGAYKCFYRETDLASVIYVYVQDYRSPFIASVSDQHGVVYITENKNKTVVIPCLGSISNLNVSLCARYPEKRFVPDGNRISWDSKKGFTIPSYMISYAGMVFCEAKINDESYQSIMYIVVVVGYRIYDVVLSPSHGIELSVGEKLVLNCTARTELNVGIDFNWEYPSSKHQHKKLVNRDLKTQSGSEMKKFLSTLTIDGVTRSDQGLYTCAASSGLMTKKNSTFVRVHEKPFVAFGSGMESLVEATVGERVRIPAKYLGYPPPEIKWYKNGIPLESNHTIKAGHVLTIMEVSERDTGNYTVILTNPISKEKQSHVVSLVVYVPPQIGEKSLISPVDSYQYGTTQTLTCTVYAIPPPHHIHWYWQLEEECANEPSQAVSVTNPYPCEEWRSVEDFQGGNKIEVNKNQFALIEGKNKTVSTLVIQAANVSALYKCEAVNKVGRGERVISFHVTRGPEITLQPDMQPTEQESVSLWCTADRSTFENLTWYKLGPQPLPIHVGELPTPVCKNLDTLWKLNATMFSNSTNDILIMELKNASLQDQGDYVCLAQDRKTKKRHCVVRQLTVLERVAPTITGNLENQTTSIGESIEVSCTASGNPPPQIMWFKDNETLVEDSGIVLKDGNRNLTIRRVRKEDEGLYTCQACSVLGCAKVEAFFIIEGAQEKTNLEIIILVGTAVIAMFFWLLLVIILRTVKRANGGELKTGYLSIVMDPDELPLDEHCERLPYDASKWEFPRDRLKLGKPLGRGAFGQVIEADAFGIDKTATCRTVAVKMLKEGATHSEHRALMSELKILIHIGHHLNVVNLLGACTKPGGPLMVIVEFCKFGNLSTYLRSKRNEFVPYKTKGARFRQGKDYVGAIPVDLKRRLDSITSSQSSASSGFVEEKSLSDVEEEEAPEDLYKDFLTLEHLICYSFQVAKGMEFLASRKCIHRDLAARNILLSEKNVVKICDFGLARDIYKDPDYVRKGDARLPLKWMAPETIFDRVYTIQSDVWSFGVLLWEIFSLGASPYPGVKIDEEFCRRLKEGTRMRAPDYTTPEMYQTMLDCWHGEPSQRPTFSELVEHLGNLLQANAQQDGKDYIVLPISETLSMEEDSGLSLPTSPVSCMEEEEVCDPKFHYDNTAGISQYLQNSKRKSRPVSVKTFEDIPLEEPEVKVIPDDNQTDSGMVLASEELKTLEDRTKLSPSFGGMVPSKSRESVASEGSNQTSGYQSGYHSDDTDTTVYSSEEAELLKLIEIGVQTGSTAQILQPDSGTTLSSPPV

[3] = ret kinase enzyme assay, read-out: Ret, range of activity, pIC50 values (converted)

| IC50 [1, 3] [µM] | IC50 [2] [µM] | IC50 (c-src) [µM] | IC50 (VEFGR2) [µM] | Compound | IC50 [1] [µM] |
| --- | --- | --- | --- | --- | --- |
| < 0.01 | < 1 | – | – | CS(=O)(=O)c1ccc2nccc(Nc3cc(O)c(F)cc3Cl)c2c1 [Example 6, 4-chloro-2-fluoro-5-{[6-(methysulfonuyl)-4-quinolinyl]amino}phenol] | – |
| 0.01 to 0.1 | – | – | 0.1 to 1 | Cc1ccc(O)cc1Nc1ccnc2ccc(C(=O)NC(C)C)cc12 [Example 10] | – |
| 0.01 to 0.1 | – | < 0.01 | – | OCc1nc(-c2ccc3c(Nc4cc(O)c(F)cc4Cl)ccnc3c2)cs1 [Example 7, 4-chloro-2-fluoro-5-({7-[2-(hydroxymethyl)-1,3-thiazol-4-yl]-4-quinolinyl}amino)phenol] | – |

Further lines, the molecule ahead of its results:

| Compound | IC50 [1, 3] [µM] | IC50 [2] [µM] | IC50 (c-src) [µM] | IC50 (VEFGR2) [µM] | IC50 [1] [µM] |
| --- | --- | --- | --- | --- | --- |
| Oc1cc(Nc2ccnc3cc(-c4cc5ccccc5o4)ccc23)ccc1Br [Example 3, 5-{[7-(1-benzofuran-2-yl)-4-quinolinyl]amino}-2-bromophenol] | 0.01 to 0.1 | – | 0.01 to 0.1 | < 0.01 | – |
| Oc1cccc(Nc2ccnc3cc(-c4ccccn4)ccc23)c1 [Example 1, 3-{[7-(2-pyridinyl)-4-quinolinyl]amino}phenol] | < 0.01 | – | < 0.01 | – | – |
| Oc1cc(Nc2ccnc3cc(-c4cccc(CNCCN5CCOCC5)c4)ccc23)c(F)cc1Cl [Example 4, 2-chloro-4-fluoro-5-({7-[3-({[2-(4-morpholinyl)ethyl]amino}methyl)phenyl]-4-quinolinyl}amino)phenol] | – | – | < 0.01 | < 0.01 | 0.01 to 0.1 |
